For data set [1], the system named is multiple myeloma cell line MM.1S. The experiment in a line: Antiproliferative effect, CellTiter-Glo cell viability assay, MM.1S. The format is cell-based, human. Here is the method:
(§1) In this experiment, the inhibition of cell proliferation in multiple myeloma cell lines MM.1S and NCI-H929 by the compound of formula (I) was detected.
(§2) The tumor cell lines were cultured in an incubator at 37° C. with 5% CO2 under the culture conditions described above. Periodical passaging was performed, and cells growing at log phase were used for plating.
(§3) (1) Cells were stained with trypan blue and viable cells were counted.
(§4) (2) The cell concentration was adjusted to an appropriate level.
(§5) (3) 90 μL of cell suspension was added to each well in the culture plate and cell-free medium was added to the blank control wells according to the table above.
(§6) (4) The culture plate was incubated overnight in an incubator at 37° C. with 5% CO2 and 100% relative humidity. […]
(§7) The following procedure was performed according to the instructions of Promega CellTiter-Glo luminescence cell viability assay kit (Promega-G7573). […]
(§8) (8) The culture plate was placed at room temperature for 10 min to stabilize the luminescence signals.
(§9) (9) The luminescence signals were detected on 2104 EnVision plate reader.
(§10) Inhibition rates of the compound of formula (I) at different concentrations were calculated in Excel, followed by plotting the inhibition curves and calculating relevant parameters including minimum inhibition rate, maximum inhibition rate and IC50 using GraphPad Prism software.
(In general: ATP-based viability assays read luminescence as a measure of living cells.)

Data set [2] concerns human myeloma MM.1S cells. The experiment in a line: In vivo pharmacodynamic study in subcutaneous xenograft tumor CB-17 SCID model. Details: species or system CB-17 SCID mice. Particulars: 5 mg/kg oral, twice daily. Here is the method: Cell culturing: human multiple myeloma cells MM.1S (ATCC® CRL-2974™) were cultured in vitro, in a semi-suspension manner, with an ATCC-formulated RPMI-1640 medium containing 10% fetal calf serum, 100 U/mL penicillin and 100 μg/mL streptomycin in an incubator at 37° C. with 5% CO2. Passages were performed twice a week. At a required number, the cells were taken, counted and inoculated.
Animals: CB-17 SCID mice, female, 6-8 weeks old, weighing 18-20 g.
0.2 mL (5×10^6 cells) of MM.1S cells (along with matrigel in a volume ratio of 1:1) was subcutaneously inoculated on the right back of each mouse, and the mice were divided into groups for administration after the mean tumor volume was approximately 130 mm^3. Seven days constitute an administration cycle, twice daily with a 12 h interval, and the compound of formula (I) was orally administered for a total of four cycles. The compound of formula (I) was administered at a dose of 5 mg/kg, tumor volume was measured twice weekly with a two-dimensional caliper, and the volume was measured in cubic millimeters and calculated according to the following formula: V=0.5a×b^2, where a and b are the long and short diameters, respectively, of the tumor. Anti-tumor efficacy was determined by dividing the mean tumor increase volume of animals treated with the compound of formula (I) by the mean tumor increase volume of untreated animals.

For data set [3], the system named is multiple myeloma cell line NCI-H929. The experiment in a line: Antiproliferative effect, CellTiter-Glo cell viability assay, NCI-H929. It is filed as cell-based. The protocol:
as §1, §2, §3, §4, §5, §6, §7, §8, §9, §10

Data set [4] in a line: Pharmacokinetic evaluation in mice. The format is in vivo, C57BL male mice. The source says: The test animals in the study were C57BL male mice, and the LC/MS/MS method was used to quantitatively determine the drug concentration in the plasma of the mice at different time points after intravenous injection or oral administration of the test compound, thus evaluating the pharmacokinetic characteristics of the compound of formula (I) in the mice.
C57Balb/C (C57) mice (male, 20-30 g, 7-10 weeks old, Beijing Vital River or Shanghai SLAC).
Clear or suspended solution of the compound of formula (I) was injected into C57 mice (fasted overnight) via the tail vein or administered intragastrically to C57 mice (fasted overnight). For intravenous injection, […] of blood was each collected by jugular vein puncture at 0 h (before injection) and 0.0833 h, 0.25 h, 0.5 h, 1 h, 2 h, 4 h, 6 h, 8 h and 24 h (after injection), and then placed in an anticoagulation tube added with EDTA-K2 (Jiangsu KANGJIAN Medical Apparatus Co., Ltd.), and the mixture was thoroughly vortex-mixed at 4° C. and centrifuged at 13000 rpm for 10 min; for intragastric administration, blood was collected by jugular vein puncture at 0 h (before administration) and 0.5 h, 1 h, 2 h, 4 h, 6 h, 8 h and 24 h (after administration), and then placed in an anticoagulation tube added with EDTA-K2 (Jiangsu KANGJIAN Medical Apparatus Co., Ltd.), and the mixture was thoroughly vortex-mixed and centrifuged at 13000 rpm for 10 min. The plasma concentration was measured by LC-MS/MS, and the relevant pharmacokinetic parameters were calculated using WinNonlin™ Version 6.3 (Pharsight, Mountain View, Calif.), a pharmacokinetic software, with a non-compartmental model linear-log trapezoidal method.

Data set [5] is described as follows: Pharmacokinetic evaluation in rats. The format is in vivo, SD male rats. The text has this:
The test animals in the study were SD male rats, and the LC/MS/MS method was used to quantitatively determine the drug concentration in the plasma of the rats at different time points after intravenous injection or oral administration of the compound of formula (I), thus evaluating the pharmacokinetic characteristics of the compound of formula (I) in the rats.
Sprague Dawley (SD) rats (male, 200-300 g, 7-10 weeks old, Beijing Vital River or Shanghai SLAC).
Clear solution of the compound of formula (I) was injected into SD rats (fasted overnight) via the tail vein or administered intragastrically to SD rats (fasted overnight). For intravenous injection, 200 μL of blood was each collected by jugular vein puncture at 0 h (before injection) and 0.0833 h, 0.25 h, 0.5 h, 1 h, 2 h, 4 h, 6 h, 8 h and 24 h (after injection), and then placed in an anticoagulation tube added with EDTA-K2 (Jiangsu KANGJIAN Medical Apparatus Co., Ltd.), and the mixture was thoroughly vortex-mixed at 4° C. and centrifuged at 13000 rpm for 10 min; for intragastric administration, blood was collected by jugular vein puncture at 0 h (before administration) and 0.5 h, 1 h, 2 h, 4 h, 6 h, 8 h and 24 h (after administration), and then placed in an anticoagulation tube added with EDTA-K2 (Jiangsu KANGJIAN Medical Apparatus Co., Ltd), and the mixture was thoroughly vortex-mixed and centrifuged at 13000 rpm for 10 min. The plasma concentration was measured by LC-MS/MS, and the relevant pharmacokinetic parameters were calculated using WinNonlin™ Version 6.3 (Pharsight, Mountain View, Calif.), a pharmacokinetic software, with a non-compartmental model linear-log trapezoidal method.

[6] abbreviates: intravenous injection (2 mg/kg).
Where [7] appears, read: intragastric administration (10 mg/kg).

pIC50: −log10 of the molar value.

What is called pIC50 is the negative decadic logarithm of the IC50, by convention in mol/L. Take `O=C1CCC(c2noc3ccc4[nH]ccc4c23)C(=O)N1` (centres unmarked) [Compound of formula (I)]: the “inhibitory effect on cell proliferation (conclusion)” value in data set [1] and in data set [3] (NCI-H929) was “excellent inhibitory effect” throughout. Besides, the pIC50 in data set [1] (Homo sapiens, MM1.S, 120 h, co-incubated 5 days, CellTiter-Glo) is 9.40; in data set [3] (Homo sapiens, 120 h, NCI-H929, co-incubated 5 days, CellTiter-Glo), 9.30. Besides, in data set [2] (Day 0), the “Tumor volume (Day 0)” value is listed as 131 ± 12 mm^3. Besides, the “TGI (Day 24)” value in data set [2] (Day 24) was found to be 105%. In addition, in data set [2] (Day 24), the “Tumor volume (Day 24)” value is 14 ± 5 mm^3. Also, the “Area under plasma concentration-time curve (0-inf)” value in data set [4] (setting [6]) was 5.34 µM·h; in data set [4] (oral administration (10 mg/kg)), 12.29 µM·h; in data set [5] (setting [7]), 26.34 µM·h; in data set [5] (setting [6]), 7.92 µM·h. Also, the “Bioavailability F” value in data set [4] (oral administration (10 mg/kg)) was determined as 46.1%; in data set [5] (setting [7]), 66.5%. Also, the Peak concentration in data set [4] (oral administration (10 mg/kg)) is 10.52 µM; in data set [5] (setting [7]), 12.75 µM. The figures for the Time to peak in data set [4] (oral administration (10 mg/kg)) and in data set [5] (setting [7]) were 0.25 h and 0.50 h, respectively.

For the origin of these results see patent publication US20230123104A1, “CRYSTAL OF TRICYCLIC COMPOUND ACTING ON CRBN PROTEIN AND PREPARATION METHOD THEREFOR” (CHIA TAI TIANQING PHARMACEUTICAL GROUP CO., LTD., priority 2020, published 2023).
